{"source": "patent US20250000869A1", "about": "“TOPICAL COMPOSITIONS OF 2-PHENYL-3, 4-DIHYDROPYRROLO [2, L-F] [1, 2, 4] TRIAZINONE DERIVATIVES AND USES THEREOF” (TOPADUR PHARMA AG, priority 2021, published 2025)", "tested_on": "uPAR−/− mice", "experiment": "Healing of full thickness excisional cutaneous wounds after topical, on wound administration", "format": "in vivo", "source_text": "The urokinase-type plasminogen activator receptor deficient (uPAR−/−) mouse that reproduces cardinal features of SSc (dermal) vasculopathy and fibrosis is an animal model of systemic sclerosis that is considered as disease-relevant. The uPAR−/− mouse integrates apoptosis of dermal endothelial cells, a decreased density of dermal microvessels and endothelial to mesenchymal transition reflecting vasculopathy with dermal thickening, collagen accumulation, enhanced myofibroblast counts reflecting skin fibrosis. uPAR−/− induces and develops dermal and pulmonary fibrosis (Manetti M et al. Ann Rheum Dis. (2014) 73:1700-1709; Manetti M et al Ann Rheum Dis. (2017) 76:924-934; Schniering J et al., (2019) In Atlas of Ulcers in Systemic Sclerosis. Diagnosis and Management. Matucci-Cerinic M and Denton C P (eds). Springer, Chain, Switzerland, pp. 27-37).\nuPAR−/− mice were bred from mating of heterozygotes (uPAR+/−; obtained from Institute for Translational Neurology and Neurology Clinics, University of Munster, Germany). Pups were genotyped and uPAR−/− mice obtained at Mendelian frequency. Two full thickness, excisional cutaneous wounds (6 mm diameter corresponding to an area of 28.3 mm^2) were generated, symmetrically to the dorsum midline. To this end, at the day before surgery, mice were anaesthetized with Isoflurane and their dorsum was shaved using Veet® depilatory cream and clippers. At the next following day, preoperative analgesia was administered at 30 min before surgery consisting of 0.1 mg/kg of Buprenorphine and 5 mg/kg of Ketoprofen. Animals were anesthetized with Isoflurane. Two full thickness wounds (including epidermis, dermis, hypodermis, panniculus carnosus; depth about 500 μm) of 6 mm diameter each were created using a biopsy punch and scissors each with identical, at least 10 mm distance left or right from the dorsum midline. To minimize wound contraction, wounds were splinted using a silicon splint (Grace Bio-Labs silicone wound splints, red with suture sites, outer diameter×inner diameter×thickness 14 mm×7 mm×0.5 mm). Splints were kept in place using six interrupted surgical sutures (6/0 polyamide-Ethylon) and Superglue (ethyl 2-cyanoacrylate glue) (Park S A et al. Wound Repair Regen. (2014) 22(3):368-380; Park S A et al. Wound Repair Regen. (2015) 23(2):251-261).\nThe cutaneous ulcers and the splint were protected using a plastic cover maintained using a non-woven adhesive dressing (Hypafix® (Smith & Nephew)) and a semiocclusive adhesive transparent dressing (Tegaderm™, (3M™)). Ketoprofen (5 mg/kg) and Buprenorphine (0.05 mg/kg) were administered for 3 days and then Buprenorphine (0.05 mg/kg) as needed. The estimated volume of a cutaneous ulcer was 28.3 mm^2 area×0.5 mm depth=14.15 mm^3 or 14.15 μl. […]", "data": [{"smiles": "CCCOc1ccc(S(=O)(=O)N2CCC(CCO[N+](=O)[O-])CC2)cc1-c1nn2c(CCC)c(/C=N/O)c(C)c2c(=O)[nH]1", "note": "[Compound 1, 2-[1-(3-{6-[(1E)-(hydroxyimino)methyl]-5-methyl-4-oxo-7-propyl-3H,4H-pyrrolo[2,1-f][1,2,4]triazin-2-yl}-4-propoxybenzenesulfonyl)piperidin-4-yl]ethyl nitrate]", "values": [{"measurement": "acceleration of wound closure versus Vehicle", "setting": "uPAR−/− mice, based on means of % Wound Closure from day 5 to day 8", "result": "about 1 day"}, {"measurement": "AUEC for % wound closure compared to vehicle", "setting": "uPAR−/− mice, day 0-7", "result": "significant increase"}, {"measurement": "healing of full thickness excisional cutaneous wounds (conclusion)", "setting": "uPAR−/− mice, once daily topical, in form of Topical Composition A2", "result": "improved"}, {"measurement": "part of wound closure delay associated with uPAR deficiency restored", "setting": "uPAR−/− vs uPAR+/+ mice, from AUEC (Table 6)", "result": "about half"}]}]}
